Results published in patent US6413907B2, “Herbicidal composition” (Syngenta Crop Protection, Inc., priority 1999, dated 2002).

Key:
Type in all cases: in vivo
maize Dk 261 = assay: Postemergence test, greenhouse; details: halosulfuron 100 g/ha, after 20 days
Excerpt: (§1) A synergistic effect is always obtained when the herbicidal action of the combination of compound I and 2.1 to 2.33 is greater than the sum of the action of the individual herbicides.
(§2) The expected herbicidal action We for a given combination of two herbicides can be calculated as follows (q.v. COLBY, S. R., “Calculating synergistic and antagonistic response of herbicide combinations”, Weeds 15, pages 20-22, 1967):
(§3) If the value actually observed is higher than the expected value We, then there is synergism.
(§4) The test plants are grown under greenhouse conditions in plastic pots until reaching the 2-3 leaf stage. Standard soil is used, as the substrate for cultivation. At the 2-3 leaf stage, the herbicides are applied to the test plants on their own and in a mixture. Application is effected in the form of an aqueous suspension of the test substances in 500 1 water/ha. The rates of application depend on the optimum dosages determined under field conditions and greenhouse conditions. Evaluation of the tests is made after 20 days (% activity, 100%=plant perished, 0%=no phytotoxic effect).

Digitaria = assay: Postemergence test, greenhouse; details: halosulfuron 100 g/ha, after 20 days
Excerpt: as §1, §2, §3, §4

Ipomoea = assay: Pre-emergence test, greenhouse; details: terbutylazin 200 g/ha, after 26 days
Excerpt: as §1, §2, §3
(§5) The test plants are sown in plastic pots in standard soil under greenhouse conditions. Directly after sowing, the test substances are applied in an aqueous suspension (500 l water/ha). The test plants are then further cultivated in the greenhouse under optimum conditions. The rates of application depend on the optimum dosages determined under field conditions and greenhouse conditions. Evaluation of the tests is made after 26 days (% activity, 100% plant perished, 0%=no phytotoxic effect).

Xanthium = assay: Pre-emergence test, greenhouse; details: terbutylazin 200 g/ha, after 26 days
Excerpt: as §1, §2, §3, §5

Polygonum = assay: Pre-emergence test, greenhouse; details: terbutylazin 200 g/ha, after 26 days
Excerpt: as §1, §2, §3, §5

Convolvulus = assay: Pre-emergence test, greenhouse; details: terbutylazin 200 g/ha, after 26 days
Excerpt: as §1, §2, §3, §5

Structure (SMILES)	% activity (herbicidal action) (maize Dk 261) [%]	% activity (herbicidal action) (Digitaria) [%]	% activity (herbicidal action) (Ipomoea) [%]	% activity (herbicidal action) (Xanthium) [%]	% activity (herbicidal action) (Polygonum) [%]	% activity (herbicidal action) (Convolvulus) [%]
COc1cc(OC)nc(NC(=O)NS(=O)(=O)c2c(C(=O)O)c(Cl)nn2C)n1 [halosulfuron]	5	25				
CCNc1nc(Cl)nc(NC(C)(C)C)n1 [terbutylazin]			30	0	60	80
